Measured values reported in the NIST ThermoML archive (doi:10.1016/j.jct.2015.03.007).
± gives the expanded uncertainty stated by the source.

Test: xn = mol fraction of the nth substance listed
Conditions: Fluid (supercritical or subcritical phases), Vibrating wire viscometry, x2 = 0.5174

C [methane] + O=C=O
Conditions	viscosity [mPa·s]
229 K, 14501 kPa	0.073 ± 0.0013
229.3 K, 12980 kPa	0.0703 ± 0.0011
229.4 K, 11654 kPa	0.06874 ± 0.0014
229.5 K, 10963 kPa	0.0679 ± 0.0012
229.5 K, 13698 kPa	0.0721 ± 0.0011
229.5 K, 14200 kPa	0.07231 ± 0.0011
229.6 K, 10168 kPa	0.06646 ± 0.00092
257.8 K, 19252 kPa	0.05496 ± 0.00098
257.8 K, 21263 kPa	0.0575 ± 0.00094
257.9 K, 12165 kPa	0.04274 ± 0.0009
257.9 K, 14190 kPa	0.047 ± 0.00078
257.9 K, 18239 kPa	0.0541 ± 0.0016
257.9 K, 22280 kPa	0.05903 ± 0.001
257.9 K, 23289 kPa	0.05979 ± 0.001
258 K, 16209 kPa	0.05083 ± 0.001
287.7 K, 7818 kPa	0.01711 ± 0.00026
287.7 K, 8134 kPa	0.01748 ± 0.00024
287.7 K, 11663 kPa	0.02384 ± 0.00034
287.7 K, 12567 kPa	0.02598 ± 0.0006
287.7 K, 13512 kPa	0.02819 ± 0.00042
287.7 K, 14605 kPa	0.03051 ± 0.00064
287.7 K, 15897 kPa	0.03311 ± 0.00048
287.7 K, 17472 kPa	0.03599 ± 0.00062
287.7 K, 19398 kPa	0.0392 ± 0.00068
287.7 K, 21895 kPa	0.04255 ± 0.00094
287.7 K, 25061 kPa	0.04633 ± 0.00088
287.8 K, 8895 kPa	0.01845 ± 0.0003
287.8 K, 9137 kPa	0.01889 ± 0.0003
287.8 K, 9866 kPa	0.02011 ± 0.00034
287.8 K, 31033 kPa	0.0527 ± 0.00074
288.1 K, 1438 kPa	0.01349 ± 0.0002
288.1 K, 1553 kPa	0.0135 ± 0.00022
288.1 K, 2042 kPa	0.01369 ± 0.00024
288.1 K, 2553 kPa	0.01388 ± 0.0002
288.1 K, 3073 kPa	0.01402 ± 0.0002
288.1 K, 3570 kPa	0.01425 ± 0.0002
288.1 K, 5123 kPa	0.01498 ± 0.00024
288.1 K, 5405 kPa	0.01519 ± 0.00022
288.2 K, 4066 kPa	0.01442 ± 0.00026
288.2 K, 4594 kPa	0.01468 ± 0.00022
288.2 K, 6609 kPa	0.01593 ± 0.00022
288.2 K, 7116 kPa	0.01636 ± 0.00024
288.2 K, 9140 kPa	0.01892 ± 0.00034
288.2 K, 11159 kPa	0.02281 ± 0.00054
288.2 K, 13180 kPa	0.02721 ± 0.00042
288.2 K, 15201 kPa	0.03146 ± 0.00052
288.2 K, 19138 kPa	0.03829 ± 0.00058
288.2 K, 21458 kPa	0.04192 ± 0.0007
288.2 K, 23984 kPa	0.04512 ± 0.00092
288.2 K, 25172 kPa	0.04621 ± 0.0007
288.2 K, 26302 kPa	0.04748 ± 0.0013
317.8 K, 2056 kPa	0.01479 ± 0.00024
317.9 K, 1389 kPa	0.01457 ± 0.00026
317.9 K, 1545 kPa	0.01462 ± 0.00026
318 K, 2566 kPa	0.015 ± 0.0002
318 K, 3069 kPa	0.01518 ± 0.00026
318 K, 4578 kPa	0.01571 ± 0.0004
318 K, 5085 kPa	0.01587 ± 0.00024
318 K, 6297 kPa	0.01646 ± 0.00028
318.1 K, 6520 kPa	0.01648 ± 0.00024
318.1 K, 7151 kPa	0.01689 ± 0.00026
318.1 K, 7212 kPa	0.01688 ± 0.00026
318.1 K, 8226 kPa	0.01751 ± 0.00028
318.1 K, 9335 kPa	0.0182 ± 0.00026
318.1 K, 10457 kPa	0.01916 ± 0.00034
318.1 K, 11460 kPa	0.02013 ± 0.0003
318.1 K, 12573 kPa	0.02123 ± 0.00034
318.1 K, 13584 kPa	0.02235 ± 0.00044
318.1 K, 14713 kPa	0.02377 ± 0.00038
318.1 K, 15239 kPa	0.02432 ± 0.00042
318.1 K, 15724 kPa	0.02502 ± 0.00042
318.1 K, 16254 kPa	0.02562 ± 0.0006
318.1 K, 17842 kPa	0.02789 ± 0.00048
318.1 K, 20300 kPa	0.03122 ± 0.0005
318.1 K, 21518 kPa	0.03236 ± 0.00056
318.1 K, 22819 kPa	0.03405 ± 0.00056
318.1 K, 24011 kPa	0.03506 ± 0.00064
318.1 K, 25249 kPa	0.03636 ± 0.00056
318.1 K, 26412 kPa	0.03781 ± 0.0006
318.1 K, 27392 kPa	0.03909 ± 0.00076
318.1 K, 28884 kPa	0.04047 ± 0.00068
318.1 K, 30364 kPa	0.04187 ± 0.0007
318.1 K, 31857 kPa	0.04341 ± 0.00066
347.7 K, 4516 kPa	0.01665 ± 0.00026
347.8 K, 2161 kPa	0.01599 ± 0.00034
347.8 K, 2764 kPa	0.01606 ± 0.00026
347.8 K, 2964 kPa	0.01612 ± 0.0003
347.8 K, 3169 kPa	0.01615 ± 0.00026
347.8 K, 3278 kPa	0.01616 ± 0.00024
347.8 K, 3485 kPa	0.01631 ± 0.00024
347.8 K, 4003 kPa	0.01648 ± 0.00028
347.8 K, 5009 kPa	0.01682 ± 0.0003
347.8 K, 5509 kPa	0.01696 ± 0.00032
347.8 K, 5514 kPa	0.01701 ± 0.00024
347.8 K, 6032 kPa	0.01714 ± 0.00026
347.8 K, 6512 kPa	0.01731 ± 0.00026
347.8 K, 7016 kPa	0.01746 ± 0.00024
347.8 K, 7538 kPa	0.01766 ± 0.0003
347.8 K, 8039 kPa	0.01795 ± 0.0003
347.8 K, 8528 kPa	0.01812 ± 0.00038
347.8 K, 9051 kPa	0.01836 ± 0.00026
347.8 K, 10090 kPa	0.0189 ± 0.0003
347.8 K, 10617 kPa	0.01914 ± 0.00032
347.8 K, 11109 kPa	0.01948 ± 0.00036
347.8 K, 11596 kPa	0.01976 ± 0.00036
347.8 K, 12118 kPa	0.02008 ± 0.00036
347.8 K, 12605 kPa	0.02043 ± 0.00034
347.8 K, 13204 kPa	0.02102 ± 0.00034
347.8 K, 13713 kPa	0.02132 ± 0.00034
347.8 K, 14226 kPa	0.02172 ± 0.00034
347.8 K, 14732 kPa	0.02205 ± 0.00038
347.8 K, 16775 kPa	0.02364 ± 0.00044
347.8 K, 18782 kPa	0.02533 ± 0.00054
347.8 K, 20792 kPa	0.02732 ± 0.00048
347.9 K, 1555 kPa	0.01586 ± 0.00034
347.9 K, 1745 kPa	0.01584 ± 0.00034
347.9 K, 1956 kPa	0.01592 ± 0.0003
347.9 K, 2361 kPa	0.01592 ± 0.00038
347.9 K, 2566 kPa	0.01603 ± 0.00032
